# From BindingDB's records for doi:10.1016/0024-3205(82)90293-4 (University of Arizona, 1982)
# “And” between values parts separate entries of the source, which are not always exact repeats. Identical values can stand only once.
# Target: Voltage-dependent L-type calcium channel subunit alpha-1C (Rattus norvegicus, UniProt P22002)
# Sequence (P22002 whole entry): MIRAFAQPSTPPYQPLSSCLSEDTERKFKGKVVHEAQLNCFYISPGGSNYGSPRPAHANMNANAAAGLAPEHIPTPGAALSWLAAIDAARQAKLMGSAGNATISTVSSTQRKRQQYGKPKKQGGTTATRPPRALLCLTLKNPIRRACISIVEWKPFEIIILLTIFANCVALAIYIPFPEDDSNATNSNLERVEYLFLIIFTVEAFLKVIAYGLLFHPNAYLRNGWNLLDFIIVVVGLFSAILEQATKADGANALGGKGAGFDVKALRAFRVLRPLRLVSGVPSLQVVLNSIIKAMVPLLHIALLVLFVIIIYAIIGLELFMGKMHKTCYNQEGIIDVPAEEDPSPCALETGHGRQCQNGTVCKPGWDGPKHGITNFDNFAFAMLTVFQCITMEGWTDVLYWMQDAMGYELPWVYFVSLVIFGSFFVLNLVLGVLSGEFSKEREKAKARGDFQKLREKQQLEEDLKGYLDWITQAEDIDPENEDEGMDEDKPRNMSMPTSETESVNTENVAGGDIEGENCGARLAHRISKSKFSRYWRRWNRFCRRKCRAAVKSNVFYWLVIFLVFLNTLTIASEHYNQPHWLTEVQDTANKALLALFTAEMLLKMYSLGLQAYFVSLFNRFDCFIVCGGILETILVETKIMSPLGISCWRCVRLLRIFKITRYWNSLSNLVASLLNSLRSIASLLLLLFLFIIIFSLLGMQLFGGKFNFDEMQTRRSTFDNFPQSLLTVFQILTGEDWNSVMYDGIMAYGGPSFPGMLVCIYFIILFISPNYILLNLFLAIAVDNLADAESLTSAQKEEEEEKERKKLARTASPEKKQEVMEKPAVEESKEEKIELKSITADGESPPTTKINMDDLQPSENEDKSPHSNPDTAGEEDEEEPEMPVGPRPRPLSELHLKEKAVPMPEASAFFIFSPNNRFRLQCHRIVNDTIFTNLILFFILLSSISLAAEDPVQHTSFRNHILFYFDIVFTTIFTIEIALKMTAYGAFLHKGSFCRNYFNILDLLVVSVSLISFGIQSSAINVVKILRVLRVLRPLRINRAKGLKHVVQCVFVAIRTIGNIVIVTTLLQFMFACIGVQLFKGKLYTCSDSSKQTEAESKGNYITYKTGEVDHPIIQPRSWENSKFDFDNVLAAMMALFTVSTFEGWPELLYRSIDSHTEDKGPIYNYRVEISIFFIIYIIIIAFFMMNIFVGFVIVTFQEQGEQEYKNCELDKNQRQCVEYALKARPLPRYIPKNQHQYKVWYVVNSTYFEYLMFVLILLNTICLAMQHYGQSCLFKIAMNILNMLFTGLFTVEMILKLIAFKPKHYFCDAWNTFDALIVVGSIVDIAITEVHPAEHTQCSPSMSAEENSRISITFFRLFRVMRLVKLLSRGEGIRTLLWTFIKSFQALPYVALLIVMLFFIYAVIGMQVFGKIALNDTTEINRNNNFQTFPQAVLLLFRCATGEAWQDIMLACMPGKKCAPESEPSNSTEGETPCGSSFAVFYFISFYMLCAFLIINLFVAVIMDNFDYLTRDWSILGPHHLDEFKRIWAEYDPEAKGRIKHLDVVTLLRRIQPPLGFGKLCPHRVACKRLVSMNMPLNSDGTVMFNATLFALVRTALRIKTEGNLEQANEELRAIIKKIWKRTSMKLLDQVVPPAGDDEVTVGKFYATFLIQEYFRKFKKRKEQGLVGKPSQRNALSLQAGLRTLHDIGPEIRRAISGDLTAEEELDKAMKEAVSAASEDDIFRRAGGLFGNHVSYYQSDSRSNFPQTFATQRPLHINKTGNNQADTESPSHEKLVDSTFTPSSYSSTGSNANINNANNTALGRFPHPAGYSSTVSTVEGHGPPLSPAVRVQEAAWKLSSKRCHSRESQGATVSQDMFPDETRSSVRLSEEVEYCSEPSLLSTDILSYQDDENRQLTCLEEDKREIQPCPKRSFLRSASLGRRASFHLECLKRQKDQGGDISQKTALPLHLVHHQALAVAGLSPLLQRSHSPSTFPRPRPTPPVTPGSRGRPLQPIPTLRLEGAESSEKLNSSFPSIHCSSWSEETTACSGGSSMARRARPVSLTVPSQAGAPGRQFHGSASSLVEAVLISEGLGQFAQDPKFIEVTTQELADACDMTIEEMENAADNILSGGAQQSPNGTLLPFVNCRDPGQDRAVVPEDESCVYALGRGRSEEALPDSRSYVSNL
row,Ki,Compound
1,0.33 nM and 0.5 nM,COC(=O)C1C(C)=NC(C)=C(C(=O)OCC(C)C)C1c1ccccc1[N+](=O)[O-] (stereo not drawn) [CAS_4499]
2,42 nM,COc1ccc(CCN(C)CCCC(C#N)(c2cc(OC)c(OC)c(OC)c2)C(C)C)cc1OC (stereo not drawn) [GALLOPAMIL]
3,0.56 nM and 0.79 nM,COCCOC(=O)C1=C(C)N=C(C)C(C(=O)OC(C)C)C1c1cccc([N+](=O)[O-])c1 (stereo not drawn) [Nimotop]
